Measured values as given in ChEMBL document CHEMBL3885881, “DrugMatrix”.

Organism: Rattus norvegicus
Test: DrugMatrix - Regimen: Daily Repeat
Type: toxicity, organism-based, Sprague-Dawley
Parameters: regimen Daily Repeat, gender Male, age 6-8 weeks
Conditions: in vivo, iv, vehicle 100 % SALINE; for ABSOLUTE BASOPHIL / ABSOLUTE EOSINOPHIL / ABSOLUTE LYMPHOCYTE / ABSOLUTE MONOCYTE / ABSOLUTE SEGMENTED NEUTROPHIL / BASOPHIL / EOSINOPHIL / ERYTHROCYTE COUNT / HEMATOCRIT / HEMOGLOBIN / LEUKOCYTE COUNT / LYMPHOCYTE / MEAN CORPUSCULAR HEMOGLOBIN / MEAN CORPUSCULAR HEMOGLOBIN CONCENTRATION / MEAN CORPUSCULAR VOLUME / MONOCYTE / NEUTROPHIL / NUCLEATED RED BLOOD CELLS / PLATELET COUNT: tissue Blood; for ALANINE AMINOTRANSFERASE / ALBUMIN / ALKALINE PHOSPHATASE / ASPARTATE AMINOTRANSFERASE / BLOOD UREA NITROGEN / CARBON DIOXIDE / CHLORIDE / CHOLESTEROL / CREATINE PHOSPHOKINASE / CREATININE / GLUCOSE / LACTATE DEHYDROGENASE / LIPASE / PHOSPHORUS / POTASSIUM / SODIUM / TOTAL BILIRUBIN / TOTAL PROTEIN / URIC ACID: tissue Plasma
[1] = 12 mg/kg, 120 h, dose level High, time 5 day
[2] = […], 72 h, dose 1.2 mg/Kg, dose level Low, time 3 day
[3] = […], 120 h, dose 1.2 mg/Kg, dose level Low, time 5 day

Cc1c(N)nc([C@H](CC(N)=O)NC[C@H](N)C(N)=O)nc1C(=O)N[C@H](C(=O)N[C@H](C)[C@@H](O)[C@H](C)C(=O)N[C@H](C(=O)NCCc1nc(-c2nc(C(=O)NCCC[S+](C)C)cs2)cs1)[C@@H](C)O)[C@@H](O[C@@H]1O[C@@H](CO)[C@@H](O)[C@H](O)[C@@H]1O[C@H]1O[C@H](CO)[C@@H](O)[C@H](OC(N)=O)[C@@H]1O)c1c[nH]cn1.[Br-] [BLEOMYCIN A2]
ABSOLUTE BASOPHIL [1]: 0 CELLS/uL
ABSOLUTE EOSINOPHIL [1]: 50 CELLS/uL
ABSOLUTE LYMPHOCYTE [1]: 10142.67 CELLS/uL
ABSOLUTE MONOCYTE [1]: 392.67 CELLS/uL
ABSOLUTE SEGMENTED NEUTROPHIL [1]: 1914.67 CELLS/uL
BASOPHIL [1]: 0%
EOSINOPHIL [1]: 0.33%
ERYTHROCYTE COUNT [1]: 6.36 x10E6/uL
HEMATOCRIT [1]: 38.97%
HEMOGLOBIN [1]: 15.17 G/DL
LEUKOCYTE COUNT [1]: 12.5 x10E3/uL
LYMPHOCYTE [1]: 80%
MEAN CORPUSCULAR HEMOGLOBIN [1]: 23.87 pg
MEAN CORPUSCULAR HEMOGLOBIN CONCENTRATION [1]: 38.93 G/DL
MEAN CORPUSCULAR VOLUME [1]: 61.27 fL
MONOCYTE [1]: 3.33%
NEUTROPHIL [1]: 16.33%
NUCLEATED RED BLOOD CELLS [1]: 0.33 /100WBC
PLATELET COUNT [1]: 1342 x10E3/uL
ALANINE AMINOTRANSFERASE [1]: 41.67 u/L
ALBUMIN [1]: 3.83 G/DL
ALKALINE PHOSPHATASE [1]: 202.67 u/L
ASPARTATE AMINOTRANSFERASE [1]: 100.67 u/L
BLOOD UREA NITROGEN [1]: 16.67 mg/dL
CARBON DIOXIDE [1]: 29 mmol/L
CHLORIDE [1]: 101 MEQ/L
CHOLESTEROL [1]: 54.33 mg/dL
CREATINE PHOSPHOKINASE [1]: 1017.67 u/L
CREATININE [1]: 0.13 mg/dL
GLUCOSE [1]: 145.67 mg/dL
LACTATE DEHYDROGENASE [1]: 563.33 u/L
LIPASE [1]: 10 u/L
PHOSPHORUS [1]: 10.83 mg/dL
POTASSIUM [1]: 6.11 MEQ/L
SODIUM [1]: 142.27 MEQ/L
TOTAL BILIRUBIN [1]: 0.1 mg/dL
TOTAL PROTEIN [1]: 6 G/DL
URIC ACID [1]: 1.3 mg/dL
ABSOLUTE BASOPHIL [2]: 0 CELLS/uL
ABSOLUTE EOSINOPHIL [2]: 212 CELLS/uL
ABSOLUTE LYMPHOCYTE [2]: 11289 CELLS/uL
ABSOLUTE MONOCYTE [2]: 312.33 CELLS/uL
ABSOLUTE SEGMENTED NEUTROPHIL [2]: 1786.67 CELLS/uL
BASOPHIL [2]: 0%
EOSINOPHIL [2]: 1.67%
ERYTHROCYTE COUNT [2]: 5.13 x10E6/uL
HEMATOCRIT [2]: 35.1%
HEMOGLOBIN [2]: 13.93 G/DL
LEUKOCYTE COUNT [2]: 13.6 x10E3/uL
LYMPHOCYTE [2]: 83%
MEAN CORPUSCULAR HEMOGLOBIN [2]: 27.23 pg
MEAN CORPUSCULAR HEMOGLOBIN CONCENTRATION [2]: 39.73 G/DL
MEAN CORPUSCULAR VOLUME [2]: 68.43 fL
MONOCYTE [2]: 2.33%
NEUTROPHIL [2]: 13%
NUCLEATED RED BLOOD CELLS [2]: 0 /100WBC
PLATELET COUNT [2]: 1111 x10E3/uL
ALANINE AMINOTRANSFERASE [2]: 40.67 u/L
ALBUMIN [2]: 4.37 G/DL
ALKALINE PHOSPHATASE [2]: 464.33 u/L
ASPARTATE AMINOTRANSFERASE [2]: 82.33 u/L
BLOOD UREA NITROGEN [2]: 13.33 mg/dL
CARBON DIOXIDE [2]: 25.33 mmol/L
CHLORIDE [2]: 100 MEQ/L
CHOLESTEROL [2]: 69.33 mg/dL
CREATINE PHOSPHOKINASE [2]: 261.33 u/L
CREATININE [2]: 0.18 mg/dL
GLUCOSE [2]: 184.67 mg/dL
LACTATE DEHYDROGENASE [2]: 180 u/L
LIPASE [2]: 10.67 u/L
PHOSPHORUS [2]: 11.87 mg/dL
POTASSIUM [2]: 5.72 MEQ/L
SODIUM [2]: 144 MEQ/L
TOTAL BILIRUBIN [2]: 0.23 mg/dL
TOTAL PROTEIN [2]: 5.97 G/DL
URIC ACID [2]: 1.6 mg/dL
ABSOLUTE BASOPHIL [3]: 0 CELLS/uL
ABSOLUTE EOSINOPHIL [3]: 37 CELLS/uL
ABSOLUTE LYMPHOCYTE [3]: 10260.33 CELLS/uL
ABSOLUTE MONOCYTE [3]: 119.33 CELLS/uL
ABSOLUTE SEGMENTED NEUTROPHIL [3]: 1383.33 CELLS/uL
BASOPHIL [3]: 0%
EOSINOPHIL [3]: 0.33%
ERYTHROCYTE COUNT [3]: 5.63 x10E6/uL
HEMATOCRIT [3]: 35.3%
HEMOGLOBIN [3]: 14.17 G/DL
LEUKOCYTE COUNT [3]: 11.8 x10E3/uL
LYMPHOCYTE [3]: 87%
MEAN CORPUSCULAR HEMOGLOBIN [3]: 25.2 pg
MEAN CORPUSCULAR HEMOGLOBIN CONCENTRATION [3]: 40.17 G/DL
MEAN CORPUSCULAR VOLUME [3]: 62.77 fL
MONOCYTE [3]: 1%
NEUTROPHIL [3]: 11.67%
NUCLEATED RED BLOOD CELLS [3]: 0 /100WBC
PLATELET COUNT [3]: 1110.33 x10E3/uL
ALANINE AMINOTRANSFERASE [3]: 46.33 u/L
ALBUMIN [3]: 4.17 G/DL
ALKALINE PHOSPHATASE [3]: 346 u/L
ASPARTATE AMINOTRANSFERASE [3]: 85 u/L
BLOOD UREA NITROGEN [3]: 17 mg/dL
CARBON DIOXIDE [3]: 32.33 mmol/L
CHLORIDE [3]: 99.67 MEQ/L
CHOLESTEROL [3]: 72.33 mg/dL
CREATINE PHOSPHOKINASE [3]: 387 u/L
CREATININE [3]: 0.22 mg/dL
GLUCOSE [3]: 142.67 mg/dL
LACTATE DEHYDROGENASE [3]: 421.33 u/L
LIPASE [3]: 10.67 u/L
PHOSPHORUS [3]: 12.3 mg/dL
POTASSIUM [3]: 6.05 MEQ/L
SODIUM [3]: 144.13 MEQ/L
TOTAL BILIRUBIN [3]: 0.17 mg/dL
TOTAL PROTEIN [3]: 6.1 G/DL
URIC ACID [3]: 1.27 mg/dL
